# Data reported in US20260207563A1, “UREA COMPOUNDS AS ACTIVATORS OF POTASSIUM CHANNELS KV7.2/7.3 USEFUL IN THE TREATMENT OF CNS AND PNS DISORDERS” (ANGELINI PHARMA S.P.A., priority 2022, published 2026).
# Tests used:
# Format in all cases: cell-based
# [1] = biological target: T1, heteromeric KV7.2/KV7.3 channels (KCNQ2, KCNQ3) (Homo sapiens, UniProt O43525+O43526); experiment: Automated patch-clamp (Sophion Qube 384) potency assay against KV7.2/KV7.3 channels; conditions: CHO-K1/Kv7.2/Kv7.3 cells; for EC50: EC50 from concentration-response of shift in Vhalf, 10 concentrations up to 30 μM, read-out: Kv7.2/7.3 EC50; for Kv7.2/7.3 ΔV1/2: maximal shift in the Vhalf from the top of the curve
# T1 construct: expressed in transfected cells; host or cells: CHO-K1
# Method in brief: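 Activator potency: EC50 from 4-parameter logistic fit of mean Vhalf shift across ten 1-in-3 dilutions starting at 30 μM (n=4), with DMSO (typically 0.3%) control. Currents recorded by leak-subtracted whole-cell clamp of stable CHO-K1 KV7.2/KV7.3 cells, held at −80 mV, stepped −100 to +20 mV then 0 mV tails.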
# [2] = biological target: T2, homomeric KV7.4 channel (KCNQ4) (Homo sapiens, UniProt P56696); experiment: Automated patch-clamp (Qube) counter-screening assay against KV7.4 channel; conditions: CHO-K1 cells expressing KV7.4; class by maximal shift in the Vhalf at 30 μM
# T2 construct: host or cells: CHO-K1
# Method in brief: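 EC50 and maximal shift in half-activation voltage come from 4-parameter logistic fits of mean Vhalf shifts. The series had ten 1-in-3 concentrations, highest 30 μM, each tested in quadruplicate. Recordings used automated Qube patch clamp on a stable CHO-K1 line expressing KCNQ4, and selectivity was judged from the 30 μM Vhalf shift.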
# [3] = biological target: T3, heteromeric KV7.3/KV7.5 channel (KCNQ3, KCNQ5) (Homo sapiens, UniProt O43525+Q9NR82); experiment: Automated patch-clamp counter-screening against KV7.3/KV7.5 channel; conditions: HEK293 cells expressing Kv7.3/KV7.5; class by maximal shift in the Vhalf at 30 μM
# T3 construct: host or cells: HEK293
# Method in brief: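 Potency came from a 4-parameter logistic fit of mean voltage-of-half-activation shifts, yielding EC50 and maximal shift; selectivity was judged on the shift at 30 μM. Compounds were applied at ten 3-fold dilutions from 30 μM in quadruplicate to HEK293 cells stably carrying Kv7.3 with tet-inducible Kv7.5.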
EC50 [1],Kv7.2/7.3 ΔV1/2 [1],SMILES,Kv7.4 selectivity criteria [2],Kv7.3/7.5 selectivity criteria [3]
11.8 µM,33.01 mV,"O=C(NCc1ccnc(OCC(F)(F)F)c1)N[C@H]1CCCC[C@@H]1O [Compound 63, 1-((1S,2S)-2-Hydroxycyclohexyl)-3-((2-(2,2,2-trifluoroethoxy)pyridin-4-yl)methyl)urea]",B (Non-selective compounds showed Kv7.4 and/or Kv7.3/7.5 ΔV1/2 higher than 15 mV (letter B in table 3)),B (Non-selective compounds showed Kv7.4 and/or Kv7.3/7.5 ΔV1/2 higher than 15 mV (letter B in table 3))
6.54 µM,30.86 mV,O=C(NCc1ccnc(OCC(F)(F)F)c1)NC1(CO)Cc2ccccc2C1 [Compound 146],B (Non-selective compounds showed Kv7.4 and/or Kv7.3/7.5 ΔV1/2 higher than 15 mV (letter B in table 3)),B (Non-selective compounds showed Kv7.4 and/or Kv7.3/7.5 ΔV1/2 higher than 15 mV (letter B in table 3))
0.428 µM,29.72 mV,"CC(C)(CCNC(=O)NCc1ccnc(OCC(F)(F)F)c1)C(F)(F)F [Compound 41, 1-(4,4,4-Trifluoro-3,3-dimethylbutyl)-3-((2-(2,2,2-trifluoroethoxy)pyridin-4-yl)methyl)urea]",A (Selective compounds showed Kv7.4 and/or Kv7.3/7.5 ΔV1/2 equal to or lower than 15 mV (letter A in table 3)),A (Selective compounds showed Kv7.4 and/or Kv7.3/7.5 ΔV1/2 equal to or lower than 15 mV (letter A in table 3))
0.565 µM,16.11 mV,CC1Cc2cccc(NC(=O)NCc3ccnc(OCC(F)(F)F)c3)c2O1 (centres unmarked) [Compound 136],A (Selective compounds showed Kv7.4 and/or Kv7.3/7.5 ΔV1/2 equal to or lower than 15 mV (letter A in table 3)),A (Selective compounds showed Kv7.4 and/or Kv7.3/7.5 ΔV1/2 equal to or lower than 15 mV (letter A in table 3))
2.8 µM,34.47 mV,O=C(NCc1ccnc(OCC(F)(F)F)c1)N[C@@H]1COc2ccccc21 [Compound 133],A (Selective compounds showed Kv7.4 and/or Kv7.3/7.5 ΔV1/2 equal to or lower than 15 mV (letter A in table 3)),B (Non-selective compounds showed Kv7.4 and/or Kv7.3/7.5 ΔV1/2 higher than 15 mV (letter B in table 3))
4.01 µM,18.8 mV,O=C(NCc1ccnc(OCC(F)(F)F)c1)NCC1CCc2ccccc21 (centres unmarked) [Compound 157],A (Selective compounds showed Kv7.4 and/or Kv7.3/7.5 ΔV1/2 equal to or lower than 15 mV (letter A in table 3)),A (Selective compounds showed Kv7.4 and/or Kv7.3/7.5 ΔV1/2 equal to or lower than 15 mV (letter A in table 3))
12.8 µM,29.92 mV,O=C(N[C@@H](CO)c1ccnc(OCC(F)(F)F)c1)N[C@H]1CCc2ccc(F)cc21 [Compound 99],B (Non-selective compounds showed Kv7.4 and/or Kv7.3/7.5 ΔV1/2 higher than 15 mV (letter B in table 3)),B (Non-selective compounds showed Kv7.4 and/or Kv7.3/7.5 ΔV1/2 higher than 15 mV (letter B in table 3))
2.44 µM,35.96 mV,O=C(NCc1ccnc(OCC(F)F)c1)N[C@@H]1CCc2ccc(F)cc21 [Compound 111],A (Selective compounds showed Kv7.4 and/or Kv7.3/7.5 ΔV1/2 equal to or lower than 15 mV (letter A in table 3)),B (Non-selective compounds showed Kv7.4 and/or Kv7.3/7.5 ΔV1/2 higher than 15 mV (letter B in table 3))

# Second part, the compound before the results:
SMILES,EC50 [1],Kv7.2/7.3 ΔV1/2 [1],Kv7.4 selectivity criteria [2],Kv7.3/7.5 selectivity criteria [3]
"O=C(NCCC1(C(F)(F)F)CC1)NCc1ccnc(OCc2ccccc2F)c1 [Compound 19, 1-((2-((2-Fluorobenzyl)oxy)pyridin-4-yl)methyl)-3-(2-(1-(trifluoromethyl)cyclopropyl)ethyl)urea]",0.263 µM,23.76 mV,A (Selective compounds showed Kv7.4 and/or Kv7.3/7.5 ΔV1/2 equal to or lower than 15 mV (letter A in table 3)),A (Selective compounds showed Kv7.4 and/or Kv7.3/7.5 ΔV1/2 equal to or lower than 15 mV (letter A in table 3))
O=C(NCc1ccnc(C(O)C(F)(F)F)c1)N[C@@H]1CCc2ccc(F)cc21 (some centres unmarked) [Compound 113],7.64 µM,27.22 mV,A (Selective compounds showed Kv7.4 and/or Kv7.3/7.5 ΔV1/2 equal to or lower than 15 mV (letter A in table 3)),B (Non-selective compounds showed Kv7.4 and/or Kv7.3/7.5 ΔV1/2 higher than 15 mV (letter B in table 3))
"O=C(NCCC1(C(F)(F)F)CC1)NCc1cc(OCc2ccc(F)cc2)nc(N2CCOCC2)c1 [Compound 27, 1-((2-((4-Fluorobenzyl)oxy)-6-morpholinopyridin-4-yl)methyl)-3-(2-(1-(trifluoromethyl)cyclopropyl)ethyl)urea]",8.02 µM,18.22 mV,B (Non-selective compounds showed Kv7.4 and/or Kv7.3/7.5 ΔV1/2 higher than 15 mV (letter B in table 3)),B (Non-selective compounds showed Kv7.4 and/or Kv7.3/7.5 ΔV1/2 higher than 15 mV (letter B in table 3))
O=C(NCc1ccnc(OCC(F)(F)F)c1)NC1CSc2ccccc2C1 (centres unmarked) [Compound 149],0.618 µM,30.8 mV,A (Selective compounds showed Kv7.4 and/or Kv7.3/7.5 ΔV1/2 equal to or lower than 15 mV (letter A in table 3)),A (Selective compounds showed Kv7.4 and/or Kv7.3/7.5 ΔV1/2 equal to or lower than 15 mV (letter A in table 3))
O=C(NCc1ccnc(OCC(F)(F)F)c1)N[C@@H]1CCCc2ccccc21 [Compound 156],1.85 µM,55.46 mV,B (Non-selective compounds showed Kv7.4 and/or Kv7.3/7.5 ΔV1/2 higher than 15 mV (letter B in table 3)),B (Non-selective compounds showed Kv7.4 and/or Kv7.3/7.5 ΔV1/2 higher than 15 mV (letter B in table 3))
"O=C(NCCC1(C(F)(F)F)CC1)NCc1ccnc(OCC(F)(F)F)n1 [Compound 49, 1-((2-(2,2,2-Trifluoroethoxy)pyrimidin-4-yl)methyl)-3-(2-(1-(trifluoromethyl)cyclopropyl)ethyl)urea]",4.23 µM,23.89 mV,A (Selective compounds showed Kv7.4 and/or Kv7.3/7.5 ΔV1/2 equal to or lower than 15 mV (letter A in table 3)),A (Selective compounds showed Kv7.4 and/or Kv7.3/7.5 ΔV1/2 equal to or lower than 15 mV (letter A in table 3))
CC(NC(=O)NCCC1(C(F)(F)F)CC1)c1ccnc(OCC(F)(F)F)n1 (centres unmarked) [Compound 104],3.09 µM,21.96 mV,A (Selective compounds showed Kv7.4 and/or Kv7.3/7.5 ΔV1/2 equal to or lower than 15 mV (letter A in table 3)),A (Selective compounds showed Kv7.4 and/or Kv7.3/7.5 ΔV1/2 equal to or lower than 15 mV (letter A in table 3))
"O=C(NCc1ccnc(OCC(F)(F)F)c1)N[C@@H]1CCCC[C@@H]1O [Compound 62, 1-((1R,2S)-2-Hydroxycyclohexyl)-3-((2-(2,2,2-trifluoroethoxy)pyridin-4-yl)methyl) urea]",11.7 µM,16.94 mV,A (Selective compounds showed Kv7.4 and/or Kv7.3/7.5 ΔV1/2 equal to or lower than 15 mV (letter A in table 3)),B (Non-selective compounds showed Kv7.4 and/or Kv7.3/7.5 ΔV1/2 higher than 15 mV (letter B in table 3))
O=C(NCc1ccnc(OCC(F)(F)F)c1)N[C@@H]1CCc2c(Cl)cccc21 [Compound 121],1.56 µM,38.54 mV,B (Non-selective compounds showed Kv7.4 and/or Kv7.3/7.5 ΔV1/2 higher than 15 mV (letter B in table 3)),B (Non-selective compounds showed Kv7.4 and/or Kv7.3/7.5 ΔV1/2 higher than 15 mV (letter B in table 3))
CC1(NC(=O)NCc2ccnc(OCC(F)(F)F)c2)Cc2ccccc2C1 [Compound 114],0.672 µM,32.56 mV,A (Selective compounds showed Kv7.4 and/or Kv7.3/7.5 ΔV1/2 equal to or lower than 15 mV (letter A in table 3)),B (Non-selective compounds showed Kv7.4 and/or Kv7.3/7.5 ΔV1/2 higher than 15 mV (letter B in table 3))
O=C(NCc1ccnc(OCC(F)(F)F)c1)N[C@H]1CCc2c(Cl)cccc21 [Compound 143],3.97 µM,22.37 mV,A (Selective compounds showed Kv7.4 and/or Kv7.3/7.5 ΔV1/2 equal to or lower than 15 mV (letter A in table 3)),B (Non-selective compounds showed Kv7.4 and/or Kv7.3/7.5 ΔV1/2 higher than 15 mV (letter B in table 3))
C[C@H](Oc1nccc(CNC(=O)NCCC2(C(F)(F)F)CC2)n1)C(F)(F)F [Compound 98],5.14 µM,22.14 mV,A (Selective compounds showed Kv7.4 and/or Kv7.3/7.5 ΔV1/2 equal to or lower than 15 mV (letter A in table 3)),A (Selective compounds showed Kv7.4 and/or Kv7.3/7.5 ΔV1/2 equal to or lower than 15 mV (letter A in table 3))
